# Results from US20240294571A1, “ANALGESIC AND ANESTHETIC PEPTIDES AND OTHER AGENTS” (The Research Foundation for The State University of New York, priority 2019, published 2024).
# Ends that are not written are not given here. Peptide text beside a SMILES is read from it. * marks the point of attachment. Myristoyl = CCCCCCCCCCCCCC(=O)*
# Legend:
# rat hind paws = experiment: Hematoxylin & eosin staining, immune cells and gait in incisional pain model; type: in vivo
# Procedure: (A) Animals were treated as previously stated in the Methods section. However, no behavior was collected, instead, animals were sacrificed via transcardial perfusion, and tissue was collected for staining. (Top) Representative images depicting hematoxylin & eosin staining of rat hind paws in scrambled (n=2) and AP2 inhibitory peptide groups (n=2). Localized immune cells can be observed in the dermis in each condition. (Bottom) 24 hours following incision, there is a rapid increase in the number of immune cells. […] (B) Representative images of incision site in animals that received either the scrambled peptide (top) or AP2 inhibitory peptide (bottom). Black arrows highlight significant granuloma-like structures.
# AP2 complex = AP2 complex (Homo sapiens, UniProt O94973+P53680); details: peptide sequence derived from human CD4 di-leucine motif; read-out: affinity for the AP2 complex; cited from earlier work
# Chain of AP2 complex (O94973 1-621 limits assumed): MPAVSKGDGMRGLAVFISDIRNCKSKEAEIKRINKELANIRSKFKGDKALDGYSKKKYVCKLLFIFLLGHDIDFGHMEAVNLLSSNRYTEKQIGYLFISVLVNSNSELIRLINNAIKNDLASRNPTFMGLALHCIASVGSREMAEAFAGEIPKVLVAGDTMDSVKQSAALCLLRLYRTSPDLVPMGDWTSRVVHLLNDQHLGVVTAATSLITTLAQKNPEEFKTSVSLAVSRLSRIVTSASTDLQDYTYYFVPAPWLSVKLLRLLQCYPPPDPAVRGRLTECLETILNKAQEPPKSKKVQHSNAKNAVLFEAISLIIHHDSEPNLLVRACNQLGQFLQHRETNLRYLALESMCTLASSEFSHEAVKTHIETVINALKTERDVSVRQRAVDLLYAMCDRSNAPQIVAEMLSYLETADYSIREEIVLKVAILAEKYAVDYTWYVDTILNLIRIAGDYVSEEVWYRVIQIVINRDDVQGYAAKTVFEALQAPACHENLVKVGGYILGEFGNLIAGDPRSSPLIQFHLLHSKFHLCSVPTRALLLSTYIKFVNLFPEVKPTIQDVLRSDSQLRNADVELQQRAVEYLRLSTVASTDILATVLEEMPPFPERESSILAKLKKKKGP
# Chain of AP2 complex (P53680 whole entry): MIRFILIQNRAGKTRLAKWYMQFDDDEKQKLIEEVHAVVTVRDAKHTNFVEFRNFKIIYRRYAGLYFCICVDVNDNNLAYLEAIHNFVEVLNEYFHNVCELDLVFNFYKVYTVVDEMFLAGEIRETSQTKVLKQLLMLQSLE
# Chain of AP2 complex (P63010 1-591 partner limits assumed): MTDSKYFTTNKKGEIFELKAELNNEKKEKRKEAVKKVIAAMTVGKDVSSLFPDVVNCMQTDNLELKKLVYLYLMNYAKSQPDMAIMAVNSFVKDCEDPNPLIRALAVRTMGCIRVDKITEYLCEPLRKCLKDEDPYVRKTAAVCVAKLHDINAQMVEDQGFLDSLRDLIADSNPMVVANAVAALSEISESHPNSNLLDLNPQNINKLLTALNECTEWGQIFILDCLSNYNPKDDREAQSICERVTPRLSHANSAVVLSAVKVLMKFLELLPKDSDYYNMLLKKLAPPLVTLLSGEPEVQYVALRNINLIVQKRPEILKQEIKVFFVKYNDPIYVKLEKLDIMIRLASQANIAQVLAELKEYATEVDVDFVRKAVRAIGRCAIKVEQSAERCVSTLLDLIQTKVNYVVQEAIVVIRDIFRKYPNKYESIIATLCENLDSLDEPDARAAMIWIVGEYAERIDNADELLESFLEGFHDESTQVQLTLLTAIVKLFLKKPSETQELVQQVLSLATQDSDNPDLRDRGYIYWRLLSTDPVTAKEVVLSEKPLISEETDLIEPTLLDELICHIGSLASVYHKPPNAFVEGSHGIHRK
# Chain of AP2 complex (Q96CW1 whole entry partner): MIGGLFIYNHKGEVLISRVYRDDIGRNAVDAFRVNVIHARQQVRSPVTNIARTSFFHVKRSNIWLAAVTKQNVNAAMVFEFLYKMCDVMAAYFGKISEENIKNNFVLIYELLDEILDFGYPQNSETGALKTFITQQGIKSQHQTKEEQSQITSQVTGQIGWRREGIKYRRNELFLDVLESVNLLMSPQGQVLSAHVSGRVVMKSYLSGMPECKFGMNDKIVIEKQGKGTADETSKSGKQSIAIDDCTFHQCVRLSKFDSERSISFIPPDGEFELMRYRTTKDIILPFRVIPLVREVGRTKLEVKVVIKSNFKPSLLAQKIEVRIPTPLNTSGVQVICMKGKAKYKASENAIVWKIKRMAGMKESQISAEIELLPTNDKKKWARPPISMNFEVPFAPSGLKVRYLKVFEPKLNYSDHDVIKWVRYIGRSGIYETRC
# C57BL/6 mice [1] = experiment: Formalin acute inflammatory pain assay; type: in vivo, mouse
# Procedure: (§1) Formalin Assay. Male and female C57BL/6 mice were randomly assigned to either control or experimental groups. Animals were habituated to the formalin testing chamber for 30 minutes or until exploratory behavior ceased the day of experimentation. Following the habituation period, animals were removed from the chamber and given an intraplantar injection of 5% formalin into the ipsilateral hind paw, then immediately placed back into the testing chamber and recorded. Animals were recorded for at least 90 minutes after formalin injection using Active WebCam software. Videos were subsequently scored for number of paw licks, number of paw lifts, and number of full body flinches. All behaviors were scored for a full minute, every five minutes, for 90 minutes of video recording.
# as §1, with “Assay:” for “Assay.”, “Animals were habituated to the formalin testing chamber for 30 minutes or until exploratory behavior ceased the day of experimentation.” left out, “All behaviors were scored for a full minute, every five minutes, for 90 minutes of video recording.” left out
# C57BL/6 mice [2] = experiment: CFA-induced inflammatory pain, thermal sensitivity (Hargreaves); type: in vivo, mouse; details: for tau (τ), time constant of thermal sensitivity recovery: time in days
# Procedure: Freund's Complete Adjuvant Chronic Pain Model. C57BL/6 mice were anesthetized (induction: 3%, maintenance: 2%) and placed in a prone position. After the animals were under a surgical plane of anesthesia, denoted by a loss of reaction to both a tail and hind paw pinch, they received a 20 μL injection of Imject™ Freund's Complete Adjuvant (FCA; Thermo Fisher Scientific) and allowed to recover. Behavior testing resumed 24 hours post FCA injection. Each cohort of animals received FCA from previously unopened, vacuum sealed glass ampules to minimize variations between groups.
# (§2) Hargreaves Assay. Animals were placed on an enclosed elevated frosted glass platform (Ugo Baseline) and allowed 30 minutes for habituation. Once exploratory behavior ceased, an automatic Hargreaves apparatus was maneuvered (Ugo Baseline) underneath the hind paw(s) of the animals. Paw withdrawal latency was calculated as the average of four trials per hind limb. Each trial was followed by a 5-minute latency period to allow adequate recovery time between trials.
# Complete Freund's Adjuvant Induced Inflammatory Pain: Male and female C57BL/6 mice were randomized into experimental and control groups. In order to maintain consistency in regards to site of injection, mice were anesthetized and injected with a 32-gauge disposable syringe filled with 20 μL of Imject™ Complete Freund's Adjuvant (Thermo Fisher Scientific) into the plantar surface of the right hind paw and allowed to recover. Behavior testing resumed 24 hours post-CFA injection at which point the animals received a 20 μL intraplantar injection of 100 μM (3.154 μg total) lipidated peptidomimetic immediately after the conclusion of day 1 behavioral testing. In order to minimize experimental error between groups, each group of animals received CFA from previously unopened, vacuum-sealed glass ampules ensuring CFA of identical specific activity.
# as §2, with “Thermal Sensitivity Testing: Prior to testing, animals were allowed to habituate to the testing room for 1 hour on each day. Animals were” for “Hargreaves Assay. Animals were”, “maneuvered (Ugo Basile) underneath the” for “maneuvered (Ugo Baseline) underneath the”
# rats = experiment: Incisional post-operative pain model, thermal sensitivity; type: in vivo, rat; details: for tau (τ), rate of recovery following incision: exponential decay fit, time in days
# Procedure: Incisional post-operative pain model: To model post-operative pain, an established rat incisional model was used. In short, male and female rats were randomized into either experimental or control groups. On the day of surgery, the animals were anesthetized and placed into a prone position. Once the animal was under a surgical plane of anesthesia, a 200 μL intraplantar injection of 100 μM (31.54 μg total) lipidated peptidomimetic was made into the ipsilateral hind paw. Afterwards, the animals were returned to their home cage and allowed to recover. On the same day, 6 hours after the pre-injection, the animals were anaesthetized, placed into a prone position, and prepared for incision injury. The ipsilateral hind paw was sterilized using successive swabs of chlorohexidine, 70% ethanol, and iodine. Then, using a size 10 scalpel, a 1 cm long incision was made into the plantar surface of the ipsilateral hind paw. Short, yet firm, strokes were used to make incisions through the skin, fascia, and muscle of the hind paw. Following incision, two 50 μL injections, containing 100 μM (7.885 μg per injection) of the lipidated peptidomimetic, were made into each “half” of the incised plantar muscle. Following injection into the muscle, the skin was sutured using 6/0 silk sutures (Ethicon) in a continuous manner to discourage removal of sutures. Upon conclusion of suturing, four 25 μL injections containing 100 μM (3.9425 μg per injection) of the lipidated peptidomimetic, were made into a “quadrant” adjacent to the incision. Finally, the animals were returned to their home cage and allowed to recover for at least 16 hours.
# as §2, with “Thermal Sensitivity Testing: Prior to testing, animals were allowed to habituate to the testing room for 1 hour on each day. Animals were” for “Hargreaves Assay. Animals were”, “maneuvered (Ugo Basile) underneath the” for “maneuvered (Ugo Baseline) underneath the”
# [3] = single i.pl. peptide injection (100 μM, 20 μL) 24 h after CFA, n=8
# [4] = peptide 100 μM 6 h before and immediately after plantar incision
molecule,measurement,setting,value
"CCCCCCCCCCCCCC(=O)N[C@@H](CCCNC(=N)N)C(=O)N[C@@H](CCSC)C(=O)N[C@@H](CO)C(=O)N[C@@H](CCC(=O)O)C(=O)N[C@H](C(=O)N[C@@H](CCCCN)C(=O)N[C@@H](CCCNC(=N)N)C(=O)N[C@@H](CC(C)C)C(=O)N[C@@H](CC(C)C)C(=O)N[C@@H](CO)C(=O)N[C@@H](CCC(=O)O)C(=O)O)[C@@H](C)CC [AP2 inhibitor peptide, RMSEIKRLLSE (SEQ ID NO: 1)] (Myristoyl-RMSEIKRLLSE-OH; N-terminus and C-terminus assumed)",granuloma-like clustering of immune cells,"rat hind paws; 24 hours following incision, n=2",dense clustering of immune cells
same,changes in gait,rat hind paws; after injection of the peptide,did not potentiate any observable changes
same,Kd,AP2 complex,650 nM
"RASDKQTLLPNQ (SEQ ID NO: 5) (also: phosphorylated, site not given here) [P4, di-leucine based peptide, parent protein CD3, phosphorylated]",nocifensive (licking and lifting) behaviors,"C57BL/6 mice [1]; di-leucine peptide analogs, 5% formalin, n=3 per analog",significant decreases
IERLSEMSLRK (SEQ ID NO: 6) [scrambled peptide],paw withdrawal latency day-1,"C57BL/6 mice [2]; 24 h after CFA, before the single i.pl. peptide injection, n=8",2.4 ± 0.3 s
same,"tau (τ), time constant of thermal sensitivity recovery","C57BL/6 mice [2]; all animals, first order exponential decay fit",4.82
same,"tau (τ), time constant of thermal sensitivity recovery","C57BL/6 mice [2]; female mice, exponential decay fit",3.23
same,"tau (τ), time constant of thermal sensitivity recovery","C57BL/6 mice [2]; male mice, exponential decay fit",6.45
same,paw withdrawal latency day-2,C57BL/6 mice [2]; [3],3.8 ± 0.5 s
same,paw withdrawal latency day-3,C57BL/6 mice [2]; [3],3.8 ± 0.4 s
same,paw withdrawal latency day-5,C57BL/6 mice [2]; [3],5.5 ± 0.6 s
same,paw withdrawal latency day-9,C57BL/6 mice [2]; [3],7.0 ± 0.8 s
same,"tau (τ), rate of recovery following incision",rats; all rats,9.09
same,"tau (τ), rate of recovery following incision",rats; female rats,11.72
same,"tau (τ), rate of recovery following incision",rats; male rats,7.46
same,paw withdrawal latency day-1,rats; [4],5.7 ± 0.4 s
same,paw withdrawal latency day-2,rats; [4],6.4 ± 0.4 s
same,paw withdrawal latency day-3,rats; [4],7.4 ± 0.5 s
same,paw withdrawal latency day-4,rats; [4],7.4 ± 0.5 s
same,paw withdrawal latency day-5,rats; [4],8.3 ± 0.6 s
same,paw withdrawal latency day-6,rats; [4],8.6 ± 0.5 s
same,paw withdrawal latency day-7,rats; [4],11.7 ± 0.6 s
same,paw withdrawal latency day-8,rats; [4],11.4 ± 0.4 s
same,paw withdrawal latency day-9,rats; [4],12.0 ± 0.6 s
same,cumulative phase 2 paw licking behavior,"C57BL/6 mice [1]; single i.pl. peptide injection (100 μM, 20 μL) 24 h before 5% formalin, n=6",184±22
